Results from paper PMC9837764 (Nature Communications, 2023).
“And” between values parts separate entries of the source, which are not always exact repeats. Equal entries are not always repeated.

Assays:
SARS-CoV-2 [1] = test: Combination of RdRp inhibitors with SARS-CoV-2 nsp14 inhibitors in infected Calu-3 cells, synergy; assay type: cell-based; parameters: EC99 mean: unit not given here; settings: for EC50: Severe acute respiratory syndrome coronavirus 2, Calu-3, read-out: EC50 mean; for Response (Fig3C source data for synergy analysis): MB-905 0 nM
Human primary monocytes = test: Monocyte viability (LDH in supernatant); assay type: cell-based; settings: 10 µM
Text: Cellular Viability (%) Remdesivir
Supplementary Fig. 3. Citotoxicity of the compounds.
DMEM containing 2% fetal bovine serum.
Monocytes at a density of 1.5

SARS-CoV-2 [2] = test: Cell-associated virus RNA in SARS-CoV-2-infected human primary monocytes; assay type: cell-based; settings: for Cell-associated virus RNA levels in SARS-CoV-2-infected monocytes: Fig. 1c; for Cell-associated virus RNA loads, inhibition (Fig1C source data, per donor): monocytes
Protocol: (§1) Human primary monocytes were obtained after 3 h of plastic adherence of peripheral blood mononuclear cells (PBMCs). The use of primary human cell was approved by Institutional Review Board from the Oswaldo Cruz Foundation under protocol 49971421.8.0000.5248 with signed informed consent in accordance with the Hemotherapy Service of Hospital Clementino Fraga from the Federal University of Rio de Janeiro. All volunteers were de-identified. PBMCs were isolated from healthy donors by density gradient centrifugation (Ficoll-Paque, GE Healthcare). PBMCs (2.0 × 10^6 cells) were plated onto 48-well plates (NalgeNunc) in RPMI-1640 without serum for 2–4 h. Nonadherent cells were removed, and the remaining monocytes were maintained in DMEM with 5% human serum (HS; Millipore) and penicillin/streptomycin. The purity of human monocytes was above 95%, as determined by flow cytometric analysis (FACScan; Becton Dickinson) using anti-CD3 (BD Biosciences, cat # 555342, 1:40), anti-CD16 (Southern Biotech, cat # 561313, 1:20) and APC mouse IgG2a isotype (BD Biosciences, cat # 550882, 1/40) and PE mouse IgG1 isotype (BD Biosciences, 555749, 1/20).
Total viral RNA from a culture supernatant and/or monolayers was extracted using QIAamp Viral RNA (Qiagen®) according to the manufacturer’s instructions. Quantitative RT‒PCR was performed using GoTaq® Probe qPCR and RT-qPCR Systems (Promega) in a StepOne™ Real-Time PCR System (Thermo Fisher Scientific) ABI PRISM 7500 Sequence Detection System (Applied Biosystems). Amplifications were carried out in 25 µL reaction mixtures containing 2× reaction mix buffer, […] of each primer, 10 µM of probe, and 5 µL of RNA template. Primers, probes, and cycling conditions recommended by the Centers for Disease Control and Prevention (CDC) protocol were used to detect SARS-CoV-2[52]. The standard curve method was employed for virus quantification. For reference to the cell amounts used, the housekeeping gene RNAse P (F-5′-[…] -3′, R-5′[…] -3′, P-5′-FAM-[…] -BHQ-1-3′) was amplified. The Ct values for this target were compared to those obtained for different cell amounts, 10^7 to 10^2, for calibration.

Calu-3 cells = settings: human
Protocol: (§2) Monolayers of 1.5 × 10^4 cells in 96-well plates were treated for 3 days with various concentrations (semilog dilutions from 1000 to 10 µM) of the antiviral drugs. Then, 5 mg/ml 2,3-bis-(2-methoxy-4-nitro-5-sulfophenyl)−2H-tetrazolium-5-carboxanilide (XTT) in DMEM was added to the cells in the presence of 0.01% N-methyl dibenzopyrazine methyl sulfate (PMS).

in vitro = settings: human
Protocol: as §2

SARS-CoV-2 [3] = test: Yield-reduction assay, SARS-CoV-2 in Calu-3 cells (titers as PFU/mL in Vero cells); settings: for Inhibition of SARS-CoV-2 infectious titers (Fig1A source data, replicates): one treatment; for Inhibition of SARS-CoV-2 infectious titers (Fig1B source data, replicates): additional treatment at 24 h
SARS-CoV-2 [4] = test: Genomic and subgenomic viral RNA in infected Calu-3 cells (RT-PCR); assay type: cell-based; settings: Calu-3, 10 µM, 48 h
TNF-α = TNF-α in supernatant of SARS-CoV-2-infected human primary monocytes; assay type: cell-based; settings: infected monocytes, drugs at 10 µM, 24 h
Protocol: as §1

IL-6 = IL-6 in supernatant of SARS-CoV-2-infected human primary monocytes; assay type: cell-based; settings: infected monocytes, drugs at 10 µM, 24 h
Protocol: as §1

[5] = test system: mouse bone marrow erythrocytes; settings: Positive Control 25 mg/Kg i.p.
[6] = human, in vivo; cited from earlier work
[7] = Severe acute respiratory syndrome coronavirus 2, Calu-3
[8] = Severe acute respiratory syndrome coronavirus 2, Calu-3, 24 h
[9] = Drug 0.001, Calu-3, MOI 0.1, 48 h
[10] = infected Calu-3, compound alone at 10 uM

Structure (SMILES): CC(C)C(=O)OC[C@H]1O[C@@H](n2ccc(NO)nc2=O)[C@H](O)[C@@H]1O [MK-4482, molnupiravir, reference compound]
- EC99 mean (SARS-CoV-2 [1]; Calu-3 cells, alone or with nsp14 inhibitor at the concentration of the label, unit not given): 9
- EC50 (SARS-CoV-2 [1]): 0.8 µM
- EC90 (SARS-CoV-2 [1]; Severe acute respiratory syndrome coronavirus 2, Calu-3, read-out: EC90 mean): 7 µM
- Monocyte viability (Human primary monocytes): drastically reduced
- Cell-associated virus RNA levels in SARS-CoV-2-infected monocytes (SARS-CoV-2 [2]): relatively low activity
- Cell-associated virus RNA loads, inhibition (Fig1C source data, per donor) (SARS-CoV-2 [2]; 24 h, Drug 1): 25 (2×) and 23
- Cell-associated virus RNA loads, inhibition (Fig1C source data, per donor) (SARS-CoV-2 [2]; 24 h, Drug 10): 1
- Cell-associated virus RNA loads, inhibition (Fig1C source data, per donor) (SARS-CoV-2 [2]; MOI 0.1, 24 h, Drug 0.1): 12 (2×) and 18
- CC50 (Calu-3 cells): 53 ± 12 µM
- CC50 (in vitro): 58 ± 18 µM
- EC50 (SARS-CoV-2 [3]; [7]): 0.72 ± 0.12 µM
- EC50 (SARS-CoV-2 [3]; [8]): 0.02 ± 0.008 µM
- Inhibition of SARS-CoV-2 infectious titers (Fig1A source data, replicates) (SARS-CoV-2 [3]; [9]): 3 and 4 and 5
- Inhibition of SARS-CoV-2 infectious titers (Fig1A source data, replicates) (SARS-CoV-2 [3]; Drug 0.01): 13 and 6 and 16
- Inhibition of SARS-CoV-2 infectious titers (Fig1A source data, replicates) (SARS-CoV-2 [3]; Drug 0.1): 48 and 30 and 35
- Inhibition of SARS-CoV-2 infectious titers (Fig1A source data, replicates) (SARS-CoV-2 [3]; Drug 1): 71 and 60 and 50
- Inhibition of SARS-CoV-2 infectious titers (Fig1A source data, replicates) (SARS-CoV-2 [3]; Drug 10): 100 and 99 and 95

Structure (SMILES): OC[C@H]1O[C@@H](n2cnc3c(NCc4ccco4)ncnc32)[C@H](O)[C@@H]1O [MB-801, Kinetin riboside]
- Virus productive titers (Fig3A source data, replicates) (SARS-CoV-2 [1]; [10]): 32000 and 36000 and 38000
- Virus productive titers (Fig3B source data, replicates) (SARS-CoV-2 [1]; [10]): 32000 and 36000 and 38000
- Genomic viral RNA (Fig2B source data, replicates) (SARS-CoV-2 [4]): 0.3 and 0.1 and 0.22
- Subgenomic viral RNA (Fig2B source data, replicates) (SARS-CoV-2 [4]): 0.5 and 0.45 and 0.56
- Cell-associated virus RNA levels in SARS-CoV-2-infected monocytes (SARS-CoV-2 [2]): reduced cell-associated virus RNA levels in a concentration-dependent manner
- Cell-associated virus RNA loads, inhibition (Fig1C source data, per donor) (SARS-CoV-2 [2]; 24 h, Drug 1): 36 and 65 and 10 and 20 and 30 and 40
- Cell-associated virus RNA loads, inhibition (Fig1C source data, per donor) (SARS-CoV-2 [2]; 24 h, Drug 10): 33 and 76 and 10 and 20 and 30 and 36
- Cell-associated virus RNA loads, inhibition (Fig1C source data, per donor) (SARS-CoV-2 [2]; MOI 0.1, 24 h, Drug 0.1): 17 and 66 and 24 and 12 and 9 and 25
- CC50 (Calu-3 cells): 530 ± 65 µM
- TNF-α levels in the culture supernatant (Fig1D source data, per donor) (TNF-α): 1.6 and 1.8 and 0.638 and 4.1 and 2.6
- CC50 (in vitro): 550 ± 32 µM
- IL-6 levels in the culture supernatant (Fig1E source data, per donor) (IL-6): 2.2 and 1.8 and 0.121 and 4.3 and 3.4 and 0.355 and 1.5 and 2.9
- EC50 (SARS-CoV-2 [3]; [7]): 0.18 ± 0.02 µM
- EC50 (SARS-CoV-2 [3]; [8]): 0.02 ± 0.003 µM
- Inhibition of SARS-CoV-2 infectious titers (Fig1B source data, replicates) (SARS-CoV-2 [3]; Drug 0.001, Calu-3, 48 h): 18 and 20 and 16
- Inhibition of SARS-CoV-2 infectious titers (Fig1B source data, replicates) (SARS-CoV-2 [3]; Drug 0.01): 39 and 40 and 54
- Inhibition of SARS-CoV-2 infectious titers (Fig1B source data, replicates) (SARS-CoV-2 [3]; Drug 0.1): 62 and 60 and 58
- Inhibition of SARS-CoV-2 infectious titers (Fig1B source data, replicates) (SARS-CoV-2 [3]; Drug 1): 81 and 86 and 58
- Inhibition of SARS-CoV-2 infectious titers (Fig1B source data, replicates) (SARS-CoV-2 [3]; Drug 10): 98 (2×) and 99
- Inhibition of SARS-CoV-2 infectious titers (Fig1A source data, replicates) (SARS-CoV-2 [3]; [9]): 2 and 4 and 5
- Inhibition of SARS-CoV-2 infectious titers (Fig1A source data, replicates) (SARS-CoV-2 [3]; Drug 0.01): 27 and 20 and 32
- Inhibition of SARS-CoV-2 infectious titers (Fig1A source data, replicates) (SARS-CoV-2 [3]; Drug 0.1): 40 and 53 and 50
- Inhibition of SARS-CoV-2 infectious titers (Fig1A source data, replicates) (SARS-CoV-2 [3]; Drug 1): 63 and 67 and 57
- Inhibition of SARS-CoV-2 infectious titers (Fig1A source data, replicates) (SARS-CoV-2 [3]; Drug 10): 95 and 94 and 72

Structure (SMILES): O=P1(N(CCCl)CCCl)NCCCO1 (stereo not shown) [Cyclophosphamide, reference compound]
- MNPCE/4,000 PCE (Mean ± S.D.) [5]: 16.20 ± 6.03
- Ratio PCE/NCE (Mean ± S.D.) [5]: 1.44 ± 0.29

Structure (SMILES): C[C@@H]1CCO[C@H]2Cn3cc(C(=O)NCc4ccc(F)cc4F)c(=O)c(O)c3C(=O)N12 [DTG, dolutegravir]
- Response (Fig3C source data for synergy analysis) (SARS-CoV-2 [1]; DTG 1000 nM): 14
- Response (Fig3C source data for synergy analysis) (SARS-CoV-2 [1]; DTG 5000 nM): 53
- Response (Fig3C source data for synergy analysis) (SARS-CoV-2 [1]; DTG 10000 nM): 74
- Response (Fig3C source data for synergy analysis) (SARS-CoV-2 [1]; DTG 15000 nM): 75
- EC50 (SARS-CoV-2 [1]): 5.3 µM
- Effects on SARS-CoV-2 replication (SARS-CoV-2 [1]; alone at 5 µM, Calu-3): marginal effects
- Virus productive titers (Fig3B source data, replicates) (SARS-CoV-2 [1]; infected Calu-3, DTG alone at 5uM): 224000 and 448000
- Cmax [6]: 15 µM
- Plasma concentration at Cmin [6]: 1.5 µM
